Tests used:
[1] = molecular target: Cyclin-dependent kinase 1/cyclin B1 (Homo sapiens) (UniProt P06493+P14635); assay: Inhibition of CDK1/Cyclin B at 10 uM by HotSpot assay relative to control; format: protein-complex assay
[2] = molecular target: Aurora kinase A (Homo sapiens) (UniProt O14965); assay: Inhibition of Aurora-A at 10 uM by HotSpot assay relative to control
[3] = molecular target: Vascular endothelial growth factor receptor 2 (Homo sapiens) (UniProt P35968); assay: Inhibition of VEGFR2 at 10 uM by HotSpot assay relative to control
[4] = molecular target: RAF proto-oncogene serine/threonine-protein kinase (Homo sapiens) (UniProt P04049); assay: Inhibition of RAF1 at 10 uM by HotSpot assay relative to control
[5] = molecular target: Macrophage-stimulating protein receptor (Homo sapiens) (UniProt Q04912); assay: Inhibition of MST1R at 10 uM by HotSpot assay relative to control
[6] = molecular target: Proto-oncogene tyrosine-protein kinase ROS (Homo sapiens) (UniProt P08922); assay: Inhibition of ROS1 at 10 uM by HotSpot assay relative to control
[7] = molecular target: Angiopoietin-1 receptor (Homo sapiens) (UniProt Q02763); assay: Inhibition of TIE2 at 10 uM by HotSpot assay relative to control
[8] = molecular target: Ephrin type-A receptor 1 (Homo sapiens) (UniProt P21709); assay: Inhibition of EPHA1 at 10 uM by HotSpot assay relative to control
[9] = molecular target: Serine/threonine-protein kinase B-raf (Homo sapiens) (UniProt P15056); assay: Inhibition of BRAF at 10 uM by HotSpot assay relative to control
[10] = molecular target: Insulin receptor (Homo sapiens) (UniProt P06213); assay: Inhibition of IR at 10 uM by HotSpot assay relative to control
[11] = molecular target: Rho-associated protein kinase 1 (Homo sapiens) (UniProt Q13464); assay: Inhibition of ROCK-I at 10 uM by HotSpot assay relative to control
[12] = molecular target: Muscle, skeletal receptor tyrosine-protein kinase (Homo sapiens) (UniProt O15146); assay: Inhibition of MUSK at 10 uM by HotSpot assay relative to control
[13] = molecular target: Proto-oncogene tyrosine-protein kinase receptor Ret (Homo sapiens) (UniProt P07949); assay: Inhibition of RET at 10 uM by HotSpot assay relative to control
[14] = molecular target: Tyrosine-protein kinase Fgr (Homo sapiens) (UniProt P09769); assay: Inhibition of FGR at 10 uM by HotSpot assay relative to control
[15] = molecular target: Mitogen-activated protein kinase 8 (Homo sapiens) (UniProt P45983); assay: Inhibition of JNK1-alpha-1 at 10 uM by HotSpot assay relative to control
[16] = molecular target: High affinity nerve growth factor receptor (Homo sapiens) (UniProt P04629); assay: Inhibition of TRKA at 10 uM by HotSpot assay relative to control
[17] = molecular target: Proto-oncogene tyrosine-protein kinase Src (Homo sapiens) (UniProt P12931); assay: Inhibition of c-Src at 10 uM by HotSpot assay relative to control
[18] = molecular target: Fibroblast growth factor receptor 1 (Homo sapiens) (UniProt P11362); assay: Inhibition of FGFR1 at 10 uM by HotSpot assay relative to control
[19] = molecular target: Mast/stem cell growth factor receptor Kit (Homo sapiens) (UniProt P10721); assay: Inhibition of c-kit at 10 uM by HotSpot assay relative to control
[20] = molecular target: Serine/threonine-protein kinase PLK1 (Homo sapiens) (UniProt P53350); assay: Inhibition of PLK1 at 10 uM by HotSpot assay relative to control
[21] = molecular target: Dual specificity mitogen-activated protein kinase kinase 1 (Homo sapiens) (UniProt Q02750); assay: Inhibition of MEK1 at 10 uM by HotSpot assay relative to control
[22] = molecular target: Focal adhesion kinase 1 (PTK2/FAK) (Homo sapiens) (UniProt Q05397); assay: Inhibition of PTK2 at 10 uM by HotSpot assay relative to control
[23] = molecular target: Homeodomain-interacting protein kinase 1 (Homo sapiens) (UniProt Q86Z02); assay: Inhibition of HIPK1 at 10 uM by HotSpot assay relative to control
[24] = tested on: RAC-alpha serine/threonine-protein kinase (Homo sapiens), P31749 [S473D]; assay: Inhibition of AKT1 dPH, S473D mutant at 10 uM by HotSpot assay relative to control
[25] = molecular target: Serine/threonine-protein kinase Chk1 (Homo sapiens) (UniProt O14757); assay: Inhibition of CHEK1 at 10 uM by HotSpot assay relative to control
[26] = molecular target: Tyrosine-protein kinase JAK1 (Homo sapiens) (UniProt P23458); assay: Inhibition of JAK1 at 10 uM by HotSpot assay relative to control
[27] = molecular target: Tyrosine-protein kinase Fyn (Homo sapiens) (UniProt P06241); assay: Inhibition of FYN at 10 uM by HotSpot assay relative to control
[28] = molecular target: Casein kinase I isoform epsilon (Homo sapiens) (UniProt P49674); assay: Inhibition of CK1epsilon at 10 uM by HotSpot assay relative to control
[29] = molecular target: Ribosomal protein S6 kinase beta-1 (Homo sapiens) (UniProt P23443); assay: Inhibition of p70S6K at 10 uM by HotSpot assay relative to control
[30] = molecular target: Serine/threonine-protein kinase 26 (Homo sapiens) (UniProt Q9P289); assay: Inhibition of MST4 at 10 uM by HotSpot assay relative to control
[31] = molecular target: Mitogen-activated protein kinase 14 (Homo sapiens) (UniProt Q16539); assay: Inhibition of p38-alpha at 10 uM by HotSpot assay relative to control
[32] = molecular target: Tyrosine-protein kinase SYK (Homo sapiens) (UniProt P43405); assay: Inhibition of SYK at 10 uM by HotSpot assay relative to control
[33] = molecular target: Serine/threonine-protein kinase pim-1 (Homo sapiens) (UniProt P11309); assay: Inhibition of PIM1 at 10 uM by HotSpot assay relative to control
[34] = molecular target: DNA-dependent protein kinase catalytic subunit (Homo sapiens) (UniProt P78527); assay: Inhibition of DNA-PK at 10 uM by HotSpot assay relative to control
[35] = molecular target: Tyrosine-protein kinase Lyn (Homo sapiens) (UniProt P07948); assay: Inhibition of LYN at 10 uM by HotSpot assay relative to control
[36] = molecular target: Death-associated protein kinase 1 (Homo sapiens) (UniProt P53355); assay: Inhibition of DAPK1 at 10 uM by HotSpot assay relative to control
[37] = molecular target: Tyrosine-protein kinase Yes (Homo sapiens) (UniProt P07947); assay: Inhibition of YES at 10 uM by HotSpot assay relative to control
[38] = molecular target: Hepatocyte growth factor receptor (Homo sapiens) (UniProt P08581); assay: Inhibition of c-MET at 10 uM by HotSpot assay relative to control
[39] = molecular target: Inhibitor of nuclear factor kappa-B kinase subunit alpha (Homo sapiens) (UniProt O15111); assay: Inhibition of IKK-alpha at 10 uM by HotSpot assay relative to control
[40] = molecular target: Tyrosine-protein kinase Lck (Homo sapiens) (UniProt P06239); assay: Inhibition of LCK at 10 uM by HotSpot assay relative to control
[41] = molecular target: Tyrosine-protein kinase ABL1 (Homo sapiens) (UniProt P00519); assay: Inhibition of Abl at 10 uM by HotSpot assay relative to control
[42] = molecular target: Epidermal growth factor receptor (Homo sapiens) (UniProt P00533); assay: Inhibition of EGFR at 10 uM by HotSpot assay relative to control
[43] = molecular target: Serine/threonine-protein kinase PAK 4 (Homo sapiens) (UniProt O96013); assay: Inhibition of PAK4 at 10 uM by HotSpot assay relative to control
[44] = molecular target: Vascular endothelial growth factor receptor 1 (Homo sapiens) (UniProt P17948); assay: Inhibition of FLT1 at 10 uM by HotSpot assay relative to control
[45] = molecular target: Protein kinase C alpha type (Homo sapiens) (UniProt P17252); assay: Inhibition of PKCalpha at 10 uM by HotSpot assay relative to control

Ephrin type-A receptor 1 (Homo sapiens), sequence (P21709 whole entry): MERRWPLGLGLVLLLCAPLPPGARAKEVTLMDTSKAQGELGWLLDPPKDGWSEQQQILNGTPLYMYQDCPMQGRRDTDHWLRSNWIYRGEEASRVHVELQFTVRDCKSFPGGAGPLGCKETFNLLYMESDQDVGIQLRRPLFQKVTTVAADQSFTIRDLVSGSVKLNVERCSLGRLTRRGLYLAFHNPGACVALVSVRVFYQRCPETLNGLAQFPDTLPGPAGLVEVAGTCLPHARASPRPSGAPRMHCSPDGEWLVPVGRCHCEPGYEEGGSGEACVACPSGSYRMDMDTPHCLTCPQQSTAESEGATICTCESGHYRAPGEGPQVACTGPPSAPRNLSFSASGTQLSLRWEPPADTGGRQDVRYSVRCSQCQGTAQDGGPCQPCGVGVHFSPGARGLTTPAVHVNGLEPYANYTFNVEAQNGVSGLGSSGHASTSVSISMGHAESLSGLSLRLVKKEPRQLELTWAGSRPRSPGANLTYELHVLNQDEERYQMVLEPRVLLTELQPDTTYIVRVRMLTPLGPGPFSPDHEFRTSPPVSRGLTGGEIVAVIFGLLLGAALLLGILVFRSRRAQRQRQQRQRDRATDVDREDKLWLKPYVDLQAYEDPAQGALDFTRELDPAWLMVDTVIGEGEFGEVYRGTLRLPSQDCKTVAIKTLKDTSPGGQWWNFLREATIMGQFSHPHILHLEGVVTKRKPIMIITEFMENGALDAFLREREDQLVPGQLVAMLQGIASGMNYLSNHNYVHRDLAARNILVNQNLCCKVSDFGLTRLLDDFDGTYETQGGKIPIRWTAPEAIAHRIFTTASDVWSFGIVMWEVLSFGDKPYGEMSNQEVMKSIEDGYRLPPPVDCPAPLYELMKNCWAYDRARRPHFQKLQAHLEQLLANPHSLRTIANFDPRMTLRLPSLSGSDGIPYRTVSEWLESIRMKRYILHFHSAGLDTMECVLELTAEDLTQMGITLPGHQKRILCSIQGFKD
Homeodomain-interacting protein kinase 1 (Homo sapiens), sequence (Q86Z02 whole entry, looked up): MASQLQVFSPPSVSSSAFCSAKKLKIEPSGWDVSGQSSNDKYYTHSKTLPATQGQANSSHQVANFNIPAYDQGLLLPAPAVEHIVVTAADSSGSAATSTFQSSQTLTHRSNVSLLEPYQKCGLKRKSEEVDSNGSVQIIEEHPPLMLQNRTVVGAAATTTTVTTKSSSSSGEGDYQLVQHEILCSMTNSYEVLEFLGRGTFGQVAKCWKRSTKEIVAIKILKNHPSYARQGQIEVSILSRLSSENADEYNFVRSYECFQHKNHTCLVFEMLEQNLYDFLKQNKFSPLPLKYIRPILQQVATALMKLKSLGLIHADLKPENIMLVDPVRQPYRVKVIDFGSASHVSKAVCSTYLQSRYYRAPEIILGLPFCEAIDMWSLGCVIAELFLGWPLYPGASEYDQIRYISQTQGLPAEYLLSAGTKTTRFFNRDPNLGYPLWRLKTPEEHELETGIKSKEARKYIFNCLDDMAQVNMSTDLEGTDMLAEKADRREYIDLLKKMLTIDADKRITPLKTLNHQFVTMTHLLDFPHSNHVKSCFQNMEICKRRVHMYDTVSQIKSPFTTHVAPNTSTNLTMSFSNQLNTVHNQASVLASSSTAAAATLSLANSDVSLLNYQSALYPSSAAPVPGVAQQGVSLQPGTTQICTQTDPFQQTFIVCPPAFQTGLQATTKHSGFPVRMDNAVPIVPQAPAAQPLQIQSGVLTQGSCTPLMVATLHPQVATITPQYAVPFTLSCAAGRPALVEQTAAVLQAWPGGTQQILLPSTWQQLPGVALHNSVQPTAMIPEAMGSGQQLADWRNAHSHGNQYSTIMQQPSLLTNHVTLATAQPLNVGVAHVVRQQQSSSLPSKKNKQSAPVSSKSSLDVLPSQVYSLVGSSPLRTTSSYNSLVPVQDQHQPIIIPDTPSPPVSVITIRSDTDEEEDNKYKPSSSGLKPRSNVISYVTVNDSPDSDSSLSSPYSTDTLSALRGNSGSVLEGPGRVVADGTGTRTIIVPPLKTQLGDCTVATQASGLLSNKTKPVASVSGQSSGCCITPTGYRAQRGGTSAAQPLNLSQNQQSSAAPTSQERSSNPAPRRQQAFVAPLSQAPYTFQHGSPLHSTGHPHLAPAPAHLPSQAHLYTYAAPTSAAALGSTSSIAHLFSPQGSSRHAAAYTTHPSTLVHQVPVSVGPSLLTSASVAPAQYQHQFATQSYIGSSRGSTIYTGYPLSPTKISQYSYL
Vascular endothelial growth factor receptor 1 (Homo sapiens), sequence (P17948 whole entry): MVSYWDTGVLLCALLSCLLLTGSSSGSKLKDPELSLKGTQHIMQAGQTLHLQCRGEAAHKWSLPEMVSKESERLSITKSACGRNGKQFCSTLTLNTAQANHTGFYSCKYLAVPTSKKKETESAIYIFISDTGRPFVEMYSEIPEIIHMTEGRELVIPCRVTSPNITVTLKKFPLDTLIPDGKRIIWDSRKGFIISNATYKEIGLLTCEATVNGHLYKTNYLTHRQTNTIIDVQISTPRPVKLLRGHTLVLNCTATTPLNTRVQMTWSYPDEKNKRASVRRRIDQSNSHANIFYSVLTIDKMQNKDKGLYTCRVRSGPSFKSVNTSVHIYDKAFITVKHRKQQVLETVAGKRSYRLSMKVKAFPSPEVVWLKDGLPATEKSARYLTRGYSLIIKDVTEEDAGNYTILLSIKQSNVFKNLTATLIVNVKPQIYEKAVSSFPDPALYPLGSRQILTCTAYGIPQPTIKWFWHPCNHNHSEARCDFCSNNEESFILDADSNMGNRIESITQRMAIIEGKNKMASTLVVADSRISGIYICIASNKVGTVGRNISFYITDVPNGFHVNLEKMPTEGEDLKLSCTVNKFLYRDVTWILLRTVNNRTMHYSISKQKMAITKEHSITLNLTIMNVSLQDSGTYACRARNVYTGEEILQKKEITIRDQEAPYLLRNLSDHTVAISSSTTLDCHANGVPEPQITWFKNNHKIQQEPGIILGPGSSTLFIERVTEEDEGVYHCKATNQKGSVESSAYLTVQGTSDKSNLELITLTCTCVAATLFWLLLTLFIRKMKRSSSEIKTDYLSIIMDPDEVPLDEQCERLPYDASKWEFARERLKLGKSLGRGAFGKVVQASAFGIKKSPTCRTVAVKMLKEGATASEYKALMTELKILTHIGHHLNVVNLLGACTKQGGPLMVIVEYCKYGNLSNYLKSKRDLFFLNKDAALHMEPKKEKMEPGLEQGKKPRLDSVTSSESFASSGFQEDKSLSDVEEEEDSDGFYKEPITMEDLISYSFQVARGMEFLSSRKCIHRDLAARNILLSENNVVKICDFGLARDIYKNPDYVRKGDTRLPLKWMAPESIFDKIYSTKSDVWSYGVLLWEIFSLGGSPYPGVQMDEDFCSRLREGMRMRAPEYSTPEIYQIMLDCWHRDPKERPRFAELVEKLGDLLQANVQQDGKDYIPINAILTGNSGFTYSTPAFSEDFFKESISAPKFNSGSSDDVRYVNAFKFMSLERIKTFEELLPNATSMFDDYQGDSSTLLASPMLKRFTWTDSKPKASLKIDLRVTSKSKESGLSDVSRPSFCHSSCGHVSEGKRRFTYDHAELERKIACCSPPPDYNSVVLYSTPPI
Fibroblast growth factor receptor 1 (Homo sapiens), sequence (P11362 22-822 limits assumed): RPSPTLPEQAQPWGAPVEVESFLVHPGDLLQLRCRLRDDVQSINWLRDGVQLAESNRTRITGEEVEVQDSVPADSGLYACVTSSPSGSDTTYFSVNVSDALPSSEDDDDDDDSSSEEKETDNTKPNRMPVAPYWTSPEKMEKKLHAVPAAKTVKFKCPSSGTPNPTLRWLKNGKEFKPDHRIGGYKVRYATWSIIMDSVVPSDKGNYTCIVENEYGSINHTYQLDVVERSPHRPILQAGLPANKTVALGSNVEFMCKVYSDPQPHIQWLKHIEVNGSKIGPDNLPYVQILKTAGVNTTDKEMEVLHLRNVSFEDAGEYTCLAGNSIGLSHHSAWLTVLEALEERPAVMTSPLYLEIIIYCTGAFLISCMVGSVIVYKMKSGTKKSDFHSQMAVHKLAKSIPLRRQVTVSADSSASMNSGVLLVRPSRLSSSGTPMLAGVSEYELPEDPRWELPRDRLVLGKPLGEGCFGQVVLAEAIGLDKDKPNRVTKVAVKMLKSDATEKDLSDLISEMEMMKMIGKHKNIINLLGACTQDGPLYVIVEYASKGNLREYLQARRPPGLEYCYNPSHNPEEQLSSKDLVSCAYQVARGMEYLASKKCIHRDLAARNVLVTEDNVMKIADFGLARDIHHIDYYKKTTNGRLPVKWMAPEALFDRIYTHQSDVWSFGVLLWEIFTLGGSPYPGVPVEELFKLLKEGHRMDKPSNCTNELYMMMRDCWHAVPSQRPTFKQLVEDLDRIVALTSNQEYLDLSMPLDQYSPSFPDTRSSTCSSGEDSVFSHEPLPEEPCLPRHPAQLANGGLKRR
Ribosomal protein S6 kinase beta-1 (Homo sapiens), sequence (P23443 whole entry, looked up): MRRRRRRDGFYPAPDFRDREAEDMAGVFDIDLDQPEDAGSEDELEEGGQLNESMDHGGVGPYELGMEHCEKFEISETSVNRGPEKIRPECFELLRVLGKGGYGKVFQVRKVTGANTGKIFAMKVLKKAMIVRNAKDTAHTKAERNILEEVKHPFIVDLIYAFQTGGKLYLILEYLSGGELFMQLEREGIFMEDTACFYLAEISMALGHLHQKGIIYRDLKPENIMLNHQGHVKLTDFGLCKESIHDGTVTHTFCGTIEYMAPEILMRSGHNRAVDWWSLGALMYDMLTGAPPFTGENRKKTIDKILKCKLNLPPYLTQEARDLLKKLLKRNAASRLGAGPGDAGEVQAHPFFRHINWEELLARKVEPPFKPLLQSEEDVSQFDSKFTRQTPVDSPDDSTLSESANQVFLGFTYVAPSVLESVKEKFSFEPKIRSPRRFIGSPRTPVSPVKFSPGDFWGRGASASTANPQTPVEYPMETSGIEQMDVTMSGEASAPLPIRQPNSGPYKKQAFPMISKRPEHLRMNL

Q: How did the inhibition [1] turn out when Cc1cc(O)cc(-c2nn(CC#N)cc2-c2cc(NC[C@H](C)O)nc(-c3cccnc3)n2)c1 was run?
A: The inhibition was 3.64%.

Q: And the inhibition [2]?
A: The inhibition was 21.8%.

Q: What about the inhibition [3] of the same molecule?
A: The inhibition was -5.84%.

Q: What about the inhibition [4] of the same molecule?
A: Its inhibition is 20.4%.

Q: And the inhibition [5]?
A: Its inhibition is 28.8%.

Q: What about the inhibition [6] of the same molecule?
A: Its inhibition is 93.9%.

Q: And the inhibition [7]?
A: Its inhibition is 8.17%.

Q: And the inhibition [8]?
A: Its inhibition is 23.3%.

Q: What about the inhibition [9] of the same molecule?
A: Its inhibition is 8.97%.

Q: What about the inhibition [10] of the same molecule?
A: The inhibition was 7.01%.

Q: What about the inhibition [11] of the same molecule?
A: The inhibition was 11.7%.

Q: What about the inhibition [12] of the same molecule?
A: Its inhibition is -0.42%.

Q: And the inhibition [13]?
A: The inhibition was 6.65%.

Q: What about the inhibition [14] of the same molecule?
A: The inhibition was 3.34%.

Q: What about the inhibition [15] of the same molecule?
A: The inhibition was 3.83%.

Q: What about the inhibition [16] of the same molecule?
A: The inhibition was -0.14%.

Q: What about the inhibition [17] of the same molecule?
A: Its inhibition is 16.2%.

Q: What about the inhibition [18] of the same molecule?
A: Its inhibition is -8.05%.

Q: And the inhibition [19]?
A: The inhibition was 2.85%.

Q: What about the inhibition [20] of the same molecule?
A: The inhibition was 5.85%.

Q: And the inhibition [21]?
A: Its inhibition is -6.97%.

Q: What about the inhibition [22] of the same molecule?
A: Its inhibition is 3.43%.

Q: What about the inhibition [23] of the same molecule?
A: Its inhibition is -3.43%.

Q: What about the inhibition [24] of the same molecule?
A: Its inhibition is -2.97%.

Q: And the inhibition [25]?
A: The inhibition was 2.36%.

Q: And the inhibition [26]?
A: The inhibition was 9.15%.

Q: What about the inhibition [27] of the same molecule?
A: The inhibition was -7.86%.

Q: What about the inhibition [28] of the same molecule?
A: The inhibition was 9.32%.

Q: What about the inhibition [29] of the same molecule?
A: Its inhibition is 5.79%.

Q: What about the inhibition [30] of the same molecule?
A: The inhibition was -1.54%.

Q: What about the inhibition [31] of the same molecule?
A: The inhibition was 5.27%.

Q: What about the inhibition [32] of the same molecule?
A: The inhibition was 8.23%.

Q: And the inhibition [33]?
A: The inhibition was 5.91%.

Q: And the inhibition [34]?
A: Its inhibition is 6.56%.

Q: And the inhibition [35]?
A: Its inhibition is -1.45%.

Q: And the inhibition [36]?
A: The inhibition was -1.17%.

Q: And the inhibition [37]?
A: The inhibition was -2.59%.

Q: What about the inhibition [38] of the same molecule?
A: Its inhibition is 5.82%.

Q: And the inhibition [39]?
A: Its inhibition is 1.37%.

Q: And the inhibition [40]?
A: The inhibition was 10.3%.

Q: What about the inhibition [41] of the same molecule?
A: The inhibition was 20.4%.

Q: What about the inhibition [42] of the same molecule?
A: The inhibition was -2.23%.

Q: And the inhibition [43]?
A: The inhibition was 1.37%.

Q: What about the inhibition [44] of the same molecule?
A: The inhibition was -1.67%.

Q: What about the inhibition [45] of the same molecule?
A: Its inhibition is 9.23%.
